Target: T1, NKCC1 (Homo sapiens, UniProt P55011)
T1 construct: expressed in transfected cells; host or cells: HEK-293
T1 sequence (P55011 1-1212): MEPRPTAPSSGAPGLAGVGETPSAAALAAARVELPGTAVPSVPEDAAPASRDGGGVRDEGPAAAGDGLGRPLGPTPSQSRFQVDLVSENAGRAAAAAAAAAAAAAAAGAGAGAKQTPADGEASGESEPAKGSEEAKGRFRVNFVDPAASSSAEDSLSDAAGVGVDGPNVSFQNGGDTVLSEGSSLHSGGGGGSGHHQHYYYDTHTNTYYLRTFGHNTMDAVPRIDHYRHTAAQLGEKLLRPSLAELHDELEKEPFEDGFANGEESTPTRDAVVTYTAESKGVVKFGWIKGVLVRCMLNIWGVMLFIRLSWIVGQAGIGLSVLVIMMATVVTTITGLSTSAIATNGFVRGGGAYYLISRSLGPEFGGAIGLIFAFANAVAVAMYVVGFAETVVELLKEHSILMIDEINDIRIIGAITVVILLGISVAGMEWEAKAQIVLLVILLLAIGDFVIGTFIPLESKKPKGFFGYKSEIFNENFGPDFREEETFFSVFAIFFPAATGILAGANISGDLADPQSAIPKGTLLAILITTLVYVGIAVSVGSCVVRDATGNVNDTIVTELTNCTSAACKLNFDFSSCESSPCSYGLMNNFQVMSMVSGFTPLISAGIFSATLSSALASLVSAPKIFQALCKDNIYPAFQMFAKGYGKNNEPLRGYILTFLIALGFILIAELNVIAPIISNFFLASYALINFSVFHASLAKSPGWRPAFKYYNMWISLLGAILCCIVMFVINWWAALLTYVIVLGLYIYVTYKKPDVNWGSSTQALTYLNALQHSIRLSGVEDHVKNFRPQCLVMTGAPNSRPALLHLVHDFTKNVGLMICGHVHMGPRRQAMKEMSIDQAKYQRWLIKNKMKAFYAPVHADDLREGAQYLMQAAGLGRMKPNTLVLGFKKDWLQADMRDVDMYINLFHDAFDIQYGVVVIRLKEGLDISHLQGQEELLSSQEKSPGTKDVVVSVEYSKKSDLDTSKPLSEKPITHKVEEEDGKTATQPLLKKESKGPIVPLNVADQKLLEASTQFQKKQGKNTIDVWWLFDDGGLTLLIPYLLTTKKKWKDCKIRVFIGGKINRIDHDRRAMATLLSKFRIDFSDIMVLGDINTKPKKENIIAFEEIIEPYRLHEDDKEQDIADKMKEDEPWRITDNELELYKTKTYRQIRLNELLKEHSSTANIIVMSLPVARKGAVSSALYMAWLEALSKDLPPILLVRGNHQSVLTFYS
Assay: TI+ flux assay, HEK-293 cells expressing NKCC1
Format: cell-based
Conditions: read-out: concentration at which effects on NKCC1 were seen (EC50 chart FIG. 1G)
Method: FLIPR TI Flux assay. HEK-293 cells were washed with HBSS, and then incubated with loading buffer containing TI sensitive fluorescent dye (https://www.moleculardevices.com), 20 μM bumetanide 20 μM ouabain and 2.5 mM probenecid for 1 h at room temperature (RT) under control conditions or with drugs in the dark using a FlexStation 3 microplate reader (Molecular Devices) and imaged […] for 30 min. Stimulus buffer was added containing 5 mM K^+/0.5 mM Tl^+ and cells were imaged every 1.5 over a 190 second time course The initial rate Tl^+ uptake (Relative Fluorescence Units (RFU) per second) was determined following addition of the stimulus buffer as outlined previously (Conway et al., 2017, supra) (Lee et al., 2022, supra).
Several studies have shown that the activity and plasma membrane accumulation of KCC2 is potentiated via phosphorylation of S940, a process mediated by the activity of protein kinase C and protein phosphatase 1 (Lee et al., 2011, supra; Lee et al., J Biol Chem 282, 29777-29784 (2007); Moore et al., Proc. Natl. Acad. Sci. U.S.A. 115, 10166-10171 (2018); Moore et al., Trends Neurosci. 40, 555-571 (2017); Silayeva et al., Proc. Natl. Acad. Sci. U.S.A. 112, 3523-3528 (2015)). […] Compared to KCC2, effects on KCC3, KCC4, and NKCC1 were only seen at concentrations more than 35-fold that of KCC2 (>100 μM) (FIG. 1G).

Molecule `C[C@@H]1CN(c2nc3c(c(Nc4ccc(C5CCCCC5)cc4)n2)COC3)CCO1` [Compound A, (R)—N-(4-cyclohexylphenyl)-2-(2-methylmorpholino)-5,7-dihydrofuro[3,4-d]pyrimidin-4-amine] has an EC50 greater than 100 µM.
